Measured values from ChEMBL document CHEMBL3611972, “Leishmanicidal, antiproteolytic, and mutagenic evaluation of alkyltriazoles and alkylphosphocholines” (Eur J Med Chem, 2015).

Key:
[1] = system: Salmonella typhimurium; assay: Mutagenicity in Salmonella typhimurium TA98 assessed as mutagenicity index at 1185.19 uM/plate incubated for 90 mins at 37 degC in absence of liver S9 fractions by Ames test relative to control; type: toxicity, organism-based; conditions: salmonella enterica subsp. enterica serovar typhimurium, 1.5 h
[2] = system: Salmonella typhimurium; assay: Mutagenicity in Salmonella typhimurium TA98 assessed as mutagenicity index at 313.73 uM/plate incubated for 90 mins at 37 degC in presence of liver S9 fractions by Ames test relative to control; type: toxicity, organism-based; conditions: salmonella enterica subsp. enterica serovar typhimurium, s9, 1.5 h
[3] = system: Salmonella typhimurium; assay: Mutagenicity in Salmonella typhimurium TA100 assessed as mutagenicity index at 905.66 uM/plate incubated for 90 mins at 37 degC in absence of liver S9 fractions by Ames test relative to control; type: toxicity, organism-based; conditions: salmonella enterica subsp. enterica serovar typhimurium, 1.5 h
[4] = system: Salmonella typhimurium; assay: Mutagenicity in Salmonella typhimurium TA100 assessed as mutagenicity index at 1185.19 uM/plate incubated for 90 mins at 37 degC in absence of liver S9 fractions by Ames test relative to control; type: toxicity, organism-based; conditions: salmonella enterica subsp. enterica serovar typhimurium, 1.5 h
[5] = system: Salmonella typhimurium; assay: Mutagenicity in Salmonella typhimurium TA100 assessed as mutagenicity index at 905.66 uM/plate incubated for 90 mins at 37 degC in presence of liver S9 fractions by Ames test relative to control; type: toxicity, organism-based; conditions: salmonella enterica subsp. enterica serovar typhimurium, s9, 1.5 h
[6] = system: Salmonella typhimurium; assay: Mutagenicity in Salmonella typhimurium TA100 assessed as mutagenicity index at 1185.19 uM/plate incubated for 90 mins at 37 degC in presence of liver S9 fractions by Ames test relative to control; type: toxicity, organism-based; conditions: salmonella enterica subsp. enterica serovar typhimurium, s9, 1.5 h
[7] = system: Salmonella typhimurium; assay: Mutagenicity in Salmonella typhimurium TA97a assessed as mutagenicity index at 905.66 uM/plate incubated for 90 mins at 37 degC in absence of liver S9 fractions by Ames test relative to control; type: toxicity, organism-based; conditions: salmonella enterica subsp. enterica serovar typhimurium, 1.5 h
[8] = system: Salmonella typhimurium; assay: Mutagenicity in Salmonella typhimurium TA97a assessed as mutagenicity index at 1454.55 uM/plate incubated for 90 mins at 37 degC in absence of liver S9 fractions by Ames test relative to control; type: toxicity, organism-based; conditions: salmonella enterica subsp. enterica serovar typhimurium, 1.5 h
[9] = system: Salmonella typhimurium; assay: Mutagenicity in Salmonella typhimurium TA97a assessed as mutagenicity index at 313.73 uM/plate incubated for 90 mins at 37 degC in presence of liver S9 fractions by Ames test relative to control; type: toxicity, organism-based; conditions: salmonella enterica subsp. enterica serovar typhimurium, s9, 1.5 h
[10] = system: Salmonella typhimurium; assay: Mutagenicity in Salmonella typhimurium TA97a assessed as mutagenicity index at 616.38 uM/plate incubated for 90 mins at 37 degC in presence of liver S9 fractions by Ames test relative to control; type: toxicity, organism-based; conditions: salmonella enterica subsp. enterica serovar typhimurium, s9, 1.5 h
[11] = system: Salmonella typhimurium; assay: Mutagenicity in Salmonella typhimurium TA97a assessed as mutagenicity index at 905.66 uM/plate incubated for 90 mins at 37 degC in presence of liver S9 fractions by Ames test relative to control; type: toxicity, organism-based; conditions: salmonella enterica subsp. enterica serovar typhimurium, s9, 1.5 h
[12] = system: Salmonella typhimurium; assay: Mutagenicity in Salmonella typhimurium TA102 assessed as mutagenicity index at 313.73 uM/plate incubated for 90 mins at 37 degC in absence of liver S9 fractions by Ames test relative to control; type: toxicity, organism-based; conditions: salmonella enterica subsp. enterica serovar typhimurium, 1.5 h
[13] = system: Salmonella typhimurium; assay: Mutagenicity in Salmonella typhimurium TA102 assessed as mutagenicity index at 616.38 uM/plate incubated for 90 mins at 37 degC in absence of liver S9 fractions by Ames test relative to control; type: toxicity, organism-based; conditions: salmonella enterica subsp. enterica serovar typhimurium, 1.5 h
[14] = system: Salmonella typhimurium; assay: Mutagenicity in Salmonella typhimurium TA102 assessed as mutagenicity index at 905.66 uM/plate incubated for 90 mins at 37 degC in absence of liver S9 fractions by Ames test relative to control; type: toxicity, organism-based; conditions: salmonella enterica subsp. enterica serovar typhimurium, 1.5 h
[15] = system: Leishmania amazonensis; assay: microbe, parasite or virus in culture; type: functional, organism-based; conditions: MHOM/BR/71973/M2269, 72 h
Description: Leishmanicidal activity against Leishmania amazonensis MHOM/BR/71973/M2269 promastigotes assessed as reduction in surviving parasites incubated for 72 hrs by Neubauer's chamber based cell counting method

[16] = system: Leishmania amazonensis; assay: Leishmanicidal activity against Leishmania amazonensis MHOM/BR/71973/M2269 amastigotes infected in mouse peritoneal macrophages assessed as reduction in surviving parasites incubated for 72 hrs by Giemsa staining based optical light microscopy; type: functional, organism-based; conditions: MHOM/BR/71973/M2269, 72 h
[17] = Cytotoxicity against mouse peritoneal macrophages assessed as reduction in cell viability incubated for 72 hrs by MTT assay; type: cell-based, Peritoneal macrophage cell
[18] = Selectivity index, ratio of CC50 for mouse peritoneal macrophages to IC50 for Leishmania amazonensis MHOM/BR/71973/M2269 amastigotes infected in mouse peritoneal macrophages; type: functional
[19] = Inhibition of Leishmania mexicana cysteine protease r-CPB2.8 using Z-FR-AMC fluorogenic substrate by spectrofluorometry
[20] = Mutagenicity in CHOK1 cells assessed as induction of chromosomal DNA mutation by measuring micronuclei level at 6.41 to 25.63 incubated for 3 hrs by cytokinesis-block micronucleus assay; type: toxicity, cell-based, Cricetulus griseus; conditions: chinese hamster, cho-k1, 3 h
[21] = system: Salmonella typhimurium; assay: Mutagenicity in Salmonella typhimurium TA98 assessed as mutagenicity index at 150.98 uM/plate incubated for 90 mins at 37 degC in absence of liver S9 fractions by Ames test relative to untreated control; type: toxicity, organism-based; conditions: salmonella enterica subsp. enterica serovar typhimurium, 1.5 h
[22] = system: Salmonella typhimurium; assay: Mutagenicity in Salmonella typhimurium TA98 assessed as mutagenicity index at 296.15 uM/plate incubated for 90 mins at 37 degC in absence of liver S9 fractions by Ames test relative to untreated control; type: toxicity, organism-based; conditions: salmonella enterica subsp. enterica serovar typhimurium, 1.5 h
[23] = system: Salmonella typhimurium; assay: Mutagenicity in Salmonella typhimurium TA98 assessed as mutagenicity index at 435.85 uM/plate incubated for 90 mins at 37 degC in presence of liver S9 fractions by Ames test relative to untreated control; type: toxicity, organism-based; conditions: salmonella enterica subsp. enterica serovar typhimurium, s9, 1.5 h
[24] = system: Salmonella typhimurium; assay: Mutagenicity in Salmonella typhimurium TA100 assessed as mutagenicity index at 296.15 uM/plate incubated for 90 mins at 37 degC in absence of liver S9 fractions by Ames test relative to untreated control; type: toxicity, organism-based; conditions: salmonella enterica subsp. enterica serovar typhimurium, 1.5 h
[25] = system: Salmonella typhimurium; assay: Mutagenicity in Salmonella typhimurium TA100 assessed as mutagenicity index at 435.85 uM/plate incubated for 90 mins at 37 degC in absence of liver S9 fractions by Ames test relative to untreated control; type: toxicity, organism-based; conditions: salmonella enterica subsp. enterica serovar typhimurium, 1.5 h
[26] = system: Salmonella typhimurium; assay: Mutagenicity in Salmonella typhimurium TA100 assessed as mutagenicity index at 150.98 uM/plate incubated for 90 mins at 37 degC in presence of liver S9 fractions by Ames test relative to untreated control; type: toxicity, organism-based; conditions: salmonella enterica subsp. enterica serovar typhimurium, s9, 1.5 h
[27] = system: Salmonella typhimurium; assay: Mutagenicity in Salmonella typhimurium TA97a assessed as mutagenicity index at 570.37 uM/plate incubated for 90 mins at 37 degC in presence of liver S9 fractions by Ames test relative to untreated control; type: toxicity, organism-based; conditions: salmonella enterica subsp. enterica serovar typhimurium, s9, 1.5 h
[28] = system: Salmonella typhimurium; assay: Mutagenicity in Salmonella typhimurium TA97a assessed as mutagenicity index at 700.00 uM/plate incubated for 90 mins at 37 degC in presence of liver S9 fractions by Ames test relative to untreated control; type: toxicity, organism-based; conditions: salmonella enterica subsp. enterica serovar typhimurium, s9, 1.5 h
[29] = system: Salmonella typhimurium; assay: Mutagenicity in Salmonella typhimurium TA102 assessed as mutagenicity index at 296.15 uM/plate incubated for 90 mins at 37 degC in absence of liver S9 fractions by Ames test relative to untreated control; type: toxicity, organism-based; conditions: salmonella enterica subsp. enterica serovar typhimurium, 1.5 h
[30] = system: Salmonella typhimurium; assay: Mutagenicity in Salmonella typhimurium TA102 assessed as mutagenicity index at 700.00 uM/plate incubated for 90 mins at 37 degC in absence of liver S9 fractions by Ames test relative to untreated control; type: toxicity, organism-based; conditions: salmonella enterica subsp. enterica serovar typhimurium, 1.5 h
[31] = system: Salmonella typhimurium; assay: Mutagenicity in Salmonella typhimurium TA102 assessed as mutagenicity index at 296.15 uM/plate incubated for 90 mins at 37 degC in presence of liver S9 fractions by Ames test relative to untreated control; type: toxicity, organism-based; conditions: salmonella enterica subsp. enterica serovar typhimurium, s9, 1.5 h
[32] = system: Salmonella typhimurium; assay: Mutagenicity in Salmonella typhimurium TA102 assessed as mutagenicity index at 435.85 uM/plate incubated for 90 mins at 37 degC in presence of liver S9 fractions by Ames test relative to untreated control; type: toxicity, organism-based; conditions: salmonella enterica subsp. enterica serovar typhimurium, s9, 1.5 h

For CCOC(=O)c1cn(CCCCCCCCCOS(C)(=O)=O)nn1, the Activity_index [1] was 1.5, the Activity_index [2] was 1 and the Activity_index [3] was 1.2. It also gave an Activity_index [4] of 1.3, an Activity_index [5] of 1 and an Activity_index [6] of 0.9. The Activity_index [7] was 1.8, the Activity_index [8] was 1.4 and the Activity_index [9] was 0.8. For the same compound, the Activity_index [10] was 0.9, the Activity_index [11] was 0.9 and the Activity_index [12] was 1.2. The Activity_index [13] was 1.1, the Activity_index [14] was 0.9 and the IC50 [15] was 37.2 µM. For the same compound, the IC50 [16] was 76.7 µM, the CC50 at 72 h [17] was 983 µM and the “Ratio CC50/IC50” value [18] was 12.82. It also gave an IC50 [19] of 0.857 µM.

For CS(=O)(=O)OCCCCCCCCCCCCn1cc(CCCO)nn1, the Activity [20] was “Non-toxic”, the IC50 [15] was 28.5 µM and the IC50 [16] was 14.2 µM. For the same compound, the CC50 at 72 h [17] was 163 µM, the “Ratio CC50/IC50” value [18] was 11.47 and the IC50 [19] was 8.18 µM. For the same compound, the Activity_index [21] was 1, the Activity_index [22] was 1.2 and the Activity_index [23] was 1.1. It also gave an Activity_index [24] of 1.3, an Activity_index [25] of 1.2 and an Activity_index [26] of 0.9. The Activity_index [27] was 1, the Activity_index [28] was 0.8 and the Activity_index [29] was 0.9. The Activity_index [30] was 1, the Activity_index [31] was 1.3 and the Activity_index [32] was 1.1.
